Key:
Type in all cases: in vivo
[1] = test system: Abutilon theophrasti (ABUTH); assay: C. Herbicidal pre-emergence efficacy, ABUTH; conditions: scored after about 3 weeks
Description: Seeds of monocotyledonous and dicotyledonous weed plants and crop plants were placed in plastic or organic planting pots and covered with soil. The compounds of the invention, formulated in the form of wettable powders (WP) or as emulsion concentrates (EC), were then applied to the surface of the covering soil as aqueous suspension or emulsion with addition of 0.5% additive at a water application rate equivalent to 600 l/ha (converted). After the treatment, the pots were placed in a greenhouse and kept under good growth conditions for the test plants. After about 3 weeks, the efficacy of the preparations was scored visually in comparison with untreated controls as percentages. For example, • 100% efficacy=plants have died, • 0% efficacy=like untreated control plants.
Tables C1a to C14b below show the effects of selected compounds of the general formula (I) according to table 1 on various harmful plants at an application rate corresponding to 320 g/ha or less, which were obtained by the experimental procedure mentioned above.

[2] = test system: Pharbitis purpurea (PHBPU); assay: E. Herbicidal post-emergence efficacy, PHBPU
Outline: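 Greenhouse weeds were treated post-emergence at the one-leaf stage, 2-3 weeks after sowing in sandy loam, with WP or EC formulations sprayed as aqueous suspension/emulsion plus 0.5% additive at 600 l/ha, at 320 g/ha or less. Efficacy was rated visually after about 3 weeks versus untreated controls (100% = dead, 0% = like control).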

[3] = test system: Echinochloa crus-galli (ECHCG); assay: C. Herbicidal pre-emergence efficacy, ECHCG; conditions: scored after about 3 weeks
Outline: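 Pre-emergence test: formulated compounds sprayed as aqueous suspension or emulsion with 0.5% additive at 600 l/ha onto soil covering sown seeds, at rates corresponding to 320 g/ha or less. After about 3 weeks in greenhouse, efficacy scored visually as percent versus untreated controls (100% = plants dead).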

[4] = test system: Polygonum convolvulus (POLCO); assay: E. Herbicidal post-emergence efficacy, POLCO
Method: Seeds of monocotyledonous and dicotyledonous weeds and crop plants were placed in sandy loam in plastic or organic planting pots, covered with soil and cultivated in a greenhouse under controlled growth conditions. 2 to 3 weeks after sowing, the test plants were treated at the one-leaf stage. The compounds of the invention, formulated in the form of wettable powders (WP) or as emulsion concentrates (EC), were then sprayed onto the green parts of the plants as aqueous suspension or emulsion with addition of 0.5% additive at a water application rate of 600 l/ha (converted). After the test plants had been kept in the greenhouse under optimum growth conditions for about 3 weeks, the activity of the preparations was rated visually in comparison to untreated controls.
For example, • 100% efficacy=plants have died, • 0% action=like untreated control plants.
Tables E1a to E12b below show the effects of selected compounds of the general formula (I) according to table 1 on various harmful plants at an application rate corresponding to 320 g/ha or less, which were obtained by the experimental procedure mentioned above.

Veronica persica (VERPE) [5] = assay: B. Herbicidal post-emergence efficacy, VERPE
Outline: (§1)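 First, seeds were sown in sandy loam and grown 2 to 3 weeks under controlled greenhouse conditions. Next, foliage at the one-leaf stage received the formulated compound in water with 0.5% additive (600 L/ha, 1280 g/ha or less). Finally, damage was rated visually after about 3 weeks against untreated plants.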

Stellaria media (STEME) = assay: B. Herbicidal post-emergence efficacy, STEME
Outline: as §1

Veronica persica (VERPE) [6] = assay: A. Herbicidal pre-emergence efficacy, VERPE; conditions: for Pre-emergence efficacy against VERPE: dosage 80 g/ha
Outline: (§2)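 Pre-emergence soil-surface spray in sandy loam pots, WP/EC in water plus 0.5% additive, 600 L/ha. Visual % damage rating after about 3 weeks in greenhouse vs. untreated; 0% = control-like, 100% = dead plants. Rates up to 1280 g/ha.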

[7] = test system: Echinochloa crus-galli (ECHCG); assay: A. Herbicidal pre-emergence efficacy, ECHCG; conditions: scored visually after about 3 weeks vs untreated controls
Outline: as §2

SMILES	Pre-emergence efficacy against ABUTH ([1]; 80 g/ha)	Pre-emergence efficacy against ABUTH ([1]; 320 g/ha)	Post-emergence efficacy against PHBPU in % ([2]; application rate 80 g/ha)	Post-emergence efficacy against PHBPU in % ([2]; application rate 320 g/ha)	Pre-emergence efficacy against ECHCG ([3]; 80 g/ha)	Pre-emergence efficacy against ECHCG ([3]; 320 g/ha)	Post-emergence efficacy against POLCO in % ([4]; application rate 320 g/ha)	Post-emergence efficacy against VERPE (Veronica persica (VERPE) [5]; 80 g/ha)	Post-emergence efficacy against VERPE (Veronica persica (VERPE) [5]; 320 g/ha)	Post-emergence efficacy against VERPE (Veronica persica (VERPE) [5]; 1280 g/ha)	Post-emergence efficacy against STEME (Stellaria media (STEME); 80 g/ha)	Post-emergence efficacy against STEME (Stellaria media (STEME); 320 g/ha)	Post-emergence efficacy against STEME (Stellaria media (STEME); 1280 g/ha)	Pre-emergence efficacy against VERPE in % (Veronica persica (VERPE) [6]; 320 g/ha)	Pre-emergence efficacy against VERPE in % (Veronica persica (VERPE) [6]; 1280 g/ha)	Pre-emergence efficacy against ECHCG ([7]; 320 g/ha)	Pre-emergence efficacy against ECHCG ([7]; 1280 g/ha)	Pre-emergence efficacy against VERPE (Veronica persica (VERPE) [6])	Pre-emergence efficacy against ECHCG ([7]; 80 g/ha)	Post-emergence efficacy against POLCO in % ([4]; application rate 80 g/ha)
O=S(=O)(CCC(F)=C(F)F)Oc1c(F)cccc1Oc1ncc(Cl)cn1 [Example I-70]	80%	100%	80%	100%	90%	100%	100%	–	–	–	–	–	–	–	–	–	–	–	–	–
O=S(=O)(CCCC(F)(F)F)Oc1c(Cl)cccc1Oc1ncc(Br)cn1 [Example I-34]	80%	90%	80%	100%	–	90%	100%	100%	100%	100%	100%	100%	100%	90%	100%	–	–	–	–	–
CC(C)CS(=O)(=O)Oc1ccccc1Oc1ncc(Cl)cn1 [Example I-7, [2-(5-Chloropyrimidin-2-yl)oxyphenyl] 2-methylpropane-1-sulfonate]	–	100%	–	90%	100%	100%	100%	–	–	–	–	90%	90%	–	100%	100%	100%	–	–	–
Cc1cccc(Oc2ncc(F)cn2)c1OS(=O)(=O)CCCC(F)(F)F [Example I-46]	100%	100%	80%	90%	90%	100%	100%	–	–	–	90%	100%	100%	90%	100%	100%	100%	90%	100%	–
O=S(=O)(CCC(F)(F)F)Oc1c(F)cccc1Oc1ncc(F)cn1 [Example I-47]	100%	100%	90%	100%	100%	100%	100%	–	–	–	100%	100%	100%	100%	100%	100%	100%	90%	100%	100%
O=S(=O)(CCCC(F)(F)F)Oc1c(F)cccc1Oc1ncc(F)cn1 [Example I-42]	100%	100%	100%	100%	100%	100%	100%	–	–	–	100%	100%	100%	100%	100%	100%	100%	100%	100%	100%
O=S(=O)(CCC(F)(F)F)Oc1c(Br)cccc1Oc1ncc(F)cn1 [Example I-43]	80%	100%	80%	90%	–	90%	90%	–	–	–	–	100%	100%	100%	100%	100%	100%	–	–	–
N#Cc1cccc(Oc2ncc(Cl)cn2)c1OS(=O)(=O)CCCC(F)(F)F [Example I-81]	–	100%	90%	100%	–	100%	100%	–	–	–	–	–	–	–	–	–	–	–	–	90%
O=S(=O)(CCCC(F)(F)F)Oc1ccccc1Oc1ncc(Cl)cn1 [Example I-10]	100%	100%	100%	100%	100%	100%	100%	–	–	–	90%	90%	100%	100%	100%	100%	100%	90%	100%	90%
O=S(=O)(CCC1CC1)Oc1c(F)cccc1Oc1ncc(Cl)cn1 [Example I-55]	–	–	90%	100%	90%	100%	100%	90%	90%	90%	90%	90%	90%	100%	100%	100%	100%	–	–	90%
